From patent US20230241167A1, “Use of Caveolin-1 Scaffolding Domain Peptides for Treating Disease and Disorders” (MUSC Foundation for Research Development, priority 2020, published 2023)
Square brackets hold non-standard residues; d marks the D form. Ends that are not written are not given here. Peptide text beside a SMILES is read from it.

How the values were obtained:
Type in all cases: in vivo
bleomycin-treated mice [1] = experiment: Bleomycin-induced lung and skin fibrosis, treatments delivered by pump; settings: for bleomycin-induced lung fibrosis (Ashcroft score): treatment by pump over two weeks after one week bleomycin, n=6
Procedure: Experiments were conducted to examine the effect of unmodified CSD subdomains on lung and skin fibrosis. […] Pumps containing bleomycin or saline vehicle were implanted subcutaneously into mice. After one week, the pumps had emptied and were replaced with pumps designed to empty over two weeks containing the indicated treatments (n=6 per group). After these two weeks, the mice were sacrificed.
Skin in the vicinity of the pump outlet was harvested for measurement of the thickness of the dermis and the intradermal fat. ^^^p<0.001 for Saline/Vehicle vs Bleo/Vehicle. ***p<0.001, **p<0.01, *p<0.05 for Bleo/Vehicle vs Bleo/Peptide Treatments.

Ang II-infused mice = experiment: Angiotensin II-induced congestive heart failure (CHF) model; settings: for suppression of AngII-induced fibrosis in the heart (Col I deposition and HSP47 level) / suppression of AngII-induced microvascular leakage in the heart (IgG heavy chain level in the tissue): Western blot; for overall effectiveness of domains in the CHF model (summary of FIGS. 1-7): FIG. 8; for suppression of the effects of AngII on Heart Weight/Body Weight (HW/BW) ratio: young mice (3 months) infused with Ang II two weeks
Procedure: FIG. 1 provides an overview of an experiment using Full-Length CSD, 82-89, 88-95, and 94-101 (SEQ ID NO:1, SEQ ID NO:2, SEQ ID NO:3, and SEQ ID NO:4 respectively).
Young mice (3 months old) infused with Ang II or vehicle for two weeks received daily i.p. injections of CSD, the indicated subdomains or scrambled CSD (0.8 μmol/kg). Mice were evaluated by Echocardiography for changes in posterior wall thickness (pWTh), fractional shortening (FS), cardiac output (CO), ejection fraction (EF), and isovolumic relaxation time (IVRT). Significant changes are shown as ***p<0.001 for Sham+Veh vs AngII+Veh. Significant suppression of AngII-induced changes is shown as ^p<0.05, ^^p<0.01, and ^^^p<0.001 for AngII+Veh vs AngII+CSD or AngII+CSD subdomains. The number of mice used in each treatment are shown in the HW/BW data.
Young mice (3 months old) infused with Ang II or vehicle for two weeks received daily i.p. injections of the indicated subdomains of CSD. The results of a typical experiment for Col I and HSP47 (FIG. 4) and for microvascular leakage (FIG. 5) are shown in Western blots (2 to 3 mice per group). The data are quantified below (n=4). Significant changes are shown as *p<0.05 and **p<0.01 for Sham+Veh vs Ang II+Veh. Significant suppression of Ang II-induced changes by subdomains are shown as ^p<0.05, […], and ^^^p<0.001 for Ang II+Veh vs Ang II+CSD subdomains.
Young mice (3 months old) infused with Ang II or vehicle for two weeks received daily i.p. injections of W82-89. IgG heavy chain (IgGH) leakage and Col I accumulation are shown in Western blots. The actin loading control is present twice because IgGH was analyzed in the supernatant fraction of heart homogenate while Col I is found in the pellet fraction. In the quantitation (n=4), significant changes are shown as **p<0.01 and ***p<0.001 for Sham+Veh vs Ang II+Veh and ^^p<0.01 and ^^^p<0.001 for reversal of AngII-induced changes by W82-89.

bleomycin-treated mice [2] = experiment: Bleomycin-induced lung and skin fibrosis, daily i.p. WCSD
Procedure: Pumps containing bleomycin or saline vehicle were implanted subcutaneously into mice. After one week, the pumps had emptied. In addition, mice were injected i.p. daily as indicated, then sacrificed on day 22. All groups contained 4 mice.
Fibrocytes (CD45+/Col I+ cells) were quantified by Flow Cytometry. ECM proteins (Col I, Tenascin C), myofibroblast markers (HSP47, ASMA), and microvascular leakage (IgG Heavy Chain that remained in the tissue after perfusion) were quantified by Western blotting (n=4). Western blot data were quantified densitometrically following normalization to an actin loading control. The value in Saline treated mice was set to 1.0 Arbitrary Unit. ^^p<0.01, ^p<0.05 for Saline/Vehicle vs Bleo/Vehicle; *p<0.05 for Bleo/Vehicle vs Bleo/WCSD.

[3] = young mice infused with Ang II two weeks, daily i.p. injections, echocardiography

Compound | bleomycin-induced lung fibrosis (Ashcroft score) (bleomycin-treated mice [1]) | suppression of AngII-induced fibrosis in the heart (Col I deposition and HSP47 level) (Ang II-infused mice; daily i.p. injections) | suppression of AngII-induced microvascular leakage in the heart (IgG heavy chain level in the tissue) (Ang II-infused mice; daily i.p. injections) | overall effectiveness of domains in the CHF model (summary of FIGS. 1-7) (Ang II-infused mice) | suppression of the effects of AngII on Heart Weight/Body Weight (HW/BW) ratio (Ang II-infused mice; daily i.p. injections) | suppression of the effects of AngII on Ejection Fraction (EF), Fractional Shortening (FS), Isovolumic Relaxation Time (IVRT) (Ang II-infused mice; [3]) | activity across all readouts of the bleomycin model (lung, skin, monocyte migration) (bleomycin-treated mice [1]; Example 4 summary) | suppression of the effects of AngII on Left Ventricle (LV) Mass and Posterior Wall Thickness (pWTh) (Ang II-infused mice; [3]) | fibrocytes (CD45+/Col I+ cells) in lung (bleomycin-treated mice [2]; Flow Cytometry) | bleomycin-induced loss of the transdermal adipose layer in the skin (bleomycin-treated mice [2]; WCSD treatment beginning on day 8) | ECM proteins (Col I, Tenascin C) in lung (bleomycin-treated mice [2]; Western blotting, n=4) | microvascular leakage (IgG Heavy Chain remaining in the tissue after perfusion) in lung (bleomycin-treated mice [2]; Western blotting, n=4) | myofibroblast markers (HSP47, ASMA) in lung (bleomycin-treated mice [2]; Western blotting, n=4) | survival (bleomycin-treated mice [2]; bleomycin pump, daily i.p. WCSD) | lung fibrosis and inflammatory cell infiltration (histology) (bleomycin-treated mice [2]; bleomycin, treatment also delayed until day 8)
94-101: CSD subdomain VTKYWFYR-NH2 | suppression | – | – | – | – | – | – | – | – | – | – | – | – | – | –
82-89: CSD subdomain DGIWKASF-NH2 | suppression | significant beneficial effect | almost completely suppressed | active | essentially equally effective as 88-95 | significant beneficial effect | most active of the subdomains tested | – | – | – | – | – | – | – | –
88-95: CSD subdomain SFTTFTVT-NH2 | suppression | most effective CSD subdomain | almost completely suppressed | most effective Dimethyl sulfoxide (DMSO)-solubilized domain tested | most effective CSD subdomain | most effective CSD subdomain | – | most effective CSD subdomain | – | – | – | – | – | – | –
CC[C@H](C)[C@H](NC(=O)CNC(=O)[C@H](CC(=O)O)NC(=O)[C@@H](CCCCN)NC(=O)[C@@H](CCCCN)NC(C)=O)C(=O)N[C@@H](Cc1c[nH]c2ccccc12)C(=O)N[C@@H](CCCCN)C(=O)N[C@@H](C)C(=O)N[C@@H](CO)C(=O)N[C@@H](Cc1ccccc1)C(=O)N[C@H](C(=O)N[C@H](C(=O)N[C@@H](Cc1ccccc1)C(=O)N[C@H](C(=O)N[C@H](C(=O)N[C@H](C(=O)N[C@@H](CCCCN)C(=O)N[C@@H](Cc1ccc(O)cc1)C(=O)N[C@@H](Cc1c[nH]c2ccccc12)C(=O)N[C@@H](Cc1ccccc1)C(=O)N[C@@H](Cc1ccc(O)cc1)C(=O)N[C@@H](CCCNC(=N)N)C(=O)N[C@H](CCCCN)C(=O)N[C@H](CCCCN)C(N)=O)[C@@H](C)O)C(C)C)[C@@H](C)O)[C@@H](C)O)[C@@H](C)O [WCSD] (Ac-[dK][dK]DGIWKASFTTFTVTKYWFYR[dK][dK]-NH2) | – | – | – | – | – | – | – | – | almost completely suppressed by WCSD down to the levels in control, saline-treated mice | suppresses the almost complete loss of the transdermal adipose layer | almost completely suppressed by WCSD down to the levels in control, saline-treated mice | almost completely suppressed by WCSD down to the levels in control, saline-treated mice | almost completely suppressed by WCSD down to the levels in control, saline-treated mice | outstanding beneficial effect on survival | suppressed by WCSD even when treatment is delayed until day 8
